Experimental data as given in BindingDB's records for patent US12528814 (Nurix Therapeutics, 2026).

Molecular target: T1, Interleukin-1 receptor-associated kinase 4 (Homo sapiens, UniProt Q9NWZ3)
T1 sequence (Q9NWZ3 whole entry): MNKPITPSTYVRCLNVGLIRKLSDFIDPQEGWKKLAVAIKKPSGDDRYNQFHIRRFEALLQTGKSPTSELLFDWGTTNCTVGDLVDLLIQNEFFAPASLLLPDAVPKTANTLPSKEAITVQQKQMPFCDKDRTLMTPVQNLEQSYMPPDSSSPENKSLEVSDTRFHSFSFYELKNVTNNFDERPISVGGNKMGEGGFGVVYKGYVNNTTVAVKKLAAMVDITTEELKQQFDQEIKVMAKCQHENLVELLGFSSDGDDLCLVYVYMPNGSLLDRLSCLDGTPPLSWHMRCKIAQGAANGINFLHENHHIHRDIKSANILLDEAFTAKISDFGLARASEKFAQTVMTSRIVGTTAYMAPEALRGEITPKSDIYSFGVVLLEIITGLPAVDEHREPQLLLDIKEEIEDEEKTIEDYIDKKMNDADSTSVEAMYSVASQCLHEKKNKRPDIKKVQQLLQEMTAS
Assay: IRAK4 Biochemical HTRF Kinase Assay
Protocol: The binding capacities of certain bifunctional compounds of Formula (I) were determined using the CisBio HTRF KinEASE STK S1 Kit (#62ST1PEB, contains 5× Kinase buffer, 1× Detection Buffer, anti-phospho-serine/threonine-cryptate, Streptavidin-XL665, and STK-S1), which measures the phosphorylation of a biotinylated peptide substrate by IRAK4, according to the manufacturer's protocol. Briefly, test compounds in DMSO were serially diluted into 384 Plus White Proxiplate (PerkinElmer, #6008280) using a Labcyte Echo 550 Liquid Handler, at a concentration of 50× final in 200 nL of 100% DMSO. 7.8 μl of kinase solution, containing 1.28 nM IRAK4 in 1× Kinase Buffer (supplemented with 3 mM MgCl2, 0.01% Triton X-100, and 1 mM DTT) was added to each compound containing well and incubated at ambient temperature for 30 min. 2 μl of a reaction solution containing 5 μM STK-S1, 10 mM ATP, and 10 mM MgCl2 were added to each well to a final volume of 10 μl. Assay controls include wells containing kinase with no compound (DMSO only) and wells containing no kinase and no compound (DMSO only). The reactions were allowed to proceed at ambient temperature for 90 minutes. […] The plates were incubated for 60 minutes at ambient temperature and then read on an Envision Multilabel Reader (PerkinElmer). […]

- IC50: 1.6 nM
SMILES: CNc1cc(-c2ccc3cc(C#N)cnn23)ncc1-c1nnc(C23CCC(NC(=O)C4CCN(c5cccc6c5C(=O)N(C5CCC(=O)NC5=O)C6=O)CC4)(CC2)CC3)s1 (stereo unspecified) [US12528814, Example 136]
